From US20130344026A1, “Dimeric Smac Mimetics” (priority 2009, published 2013) come the findings set out here.

Like-named read-outs stand apart in the source and are kept apart here.

The test system of the assay is PANC-1 cells. Kind of assay: cell viability assay in PANC-1 cells (compound alone, + 100 ng/ml TNFa, + 300 ng/ml TRAIL). The class given is cell-based.
[1] abbreviates: Homo sapiens, PANC-1, compound alone, Tables 6-10, read-out: IC50 (μM) in cell viability assay in PANC-1 cells: Compound alone.
[2] abbreviates: with 100 ng/ml TNFa, Tables 6-10, read-out: IC50 (μM) in cell viability assay in PANC-1 cells: Compound + 100 ng/ml TNFa.
Where [3] appears, read: with 300 ng/ml TRAIL, Tables 6-10, read-out: IC50 (μM) in cell viability assay in PANC-1 cells: Compound + 300 ng/ml TRAIL.
The mark [4] stands for this setting: Homo sapiens, PANC-1, compound alone, Tables 15-18, read-out: IC50 (uM) in cell viability assay in PANC-1 cells: Cmpnd alone.
The mark [5] stands for this setting: with 100 ng/ml TNFa, Tables 15-18, read-out: IC50 (uM) in cell viability assay in PANC-1 cells: Cmpnd + 100 ng/ml TNFa.
[6] abbreviates: with 300 ng/ml TRAIL, Tables 15-18, read-out: IC50 (uM) in cell viability assay in PANC-1 cells: Cmpnd + 300 ng/ml TRAIL.
The mark [7] stands for this setting: Homo sapiens, PANC-1 cells, compound alone, read-out: IC50 (uM) in cell viability assay in PANC-1 cells, Cmpnd alone.
The mark [8] stands for this setting: PANC-1 cells, + 100 ng/ml TNFa, read-out: IC50 (uM) in cell viability assay in PANC-1 cells, Cmpnd + 100 ng/ml TNFa.
Where [9] appears, read: PANC-1 cells, + 300 ng/ml TRAIL, read-out: IC50 (uM) in cell viability assay in PANC-1 cells, Cmpnd + 300 ng/ml TRAIL.

`CCC1(NC(=O)[C@@H]2C[C@H](NC(=O)c3cccc(C(=O)N[C@H]4C[C@@H](C(=O)NC5(CC)CCCc6ccccc65)N(C(=O)[C@@H](NC(=O)[C@H](C)NC)C(C)(C)C)C4)c3)CN2C(=O)[C@@H](NC(=O)[C@H](C)NC)C(C)(C)C)CCCc2ccccc21` (stereo partly drawn) [Compound 50]: the IC50 is greater than 1 µM under setting [1], 0.236 µM under setting [2] and 0.122 µM under setting [3].

As to `CN[C@@H](C)C(=O)N[C@H](C(=O)N1C[C@@H](NC(=O)c2cccc(C(=O)N[C@H]3C[C@@H](C(=O)N[C@H](COC)[C@@H](C)OC)N(C(=O)[C@@H](NC(=O)[C@H](C)NC)C(C)(C)C)C3)c2)C[C@H]1C(=O)N[C@H](COC)[C@@H](C)OC)C(C)(C)C` [Compound 69], the IC50 under setting [1] was greater than 1 µM, the IC50 under setting [2] is greater than 1 µM and the IC50 under setting [3] was greater than 1 µM.

On to `CN[C@@H](C)C(=O)N[C@@H](CCCCCC[C@H](NC(=O)[C@H](C)NC)C(=O)N1CCC[C@H]1CNC(=O)c1cc2ccccc2cc1OC)C(=O)N1CCC[C@H]1CNC(=O)c1cc2ccccc2cc1OC` [Compound 38], for which the IC50 runs as follows: under setting [1], greater than 1 µM; under setting [2], greater than 1 µM; under setting [3], greater than 1 µM.

Take `CN[C@@H](C)C(=O)N[C@@H](CCCCCC[C@H](NC(=O)[C@H](C)NC)C(=O)N1CC[C@H]1C(=O)N[C@@H]1CCCc2ccccc21)C(=O)N1CC[C@H]1C(=O)N[C@@H]1CCCc2ccccc21` [Compound 102]: the IC50 under setting [1] is greater than 1 µM, the IC50 under setting [2] was determined as 0.064 µM and the IC50 under setting [3] worked out at 0.069 µM.

Consider `CN[C@@H](C)C(=O)NC(CCC(=O)Nc1ccc(CCc2ccc(NC(=O)CCC(NC(=O)[C@H](C)NC)C(=O)N3CCC[C@H]3C(=O)N[C@@H]3CCCc4ccccc43)cc2)cc1)C(=O)N1CCC[C@H]1C(=O)NC1CCCc2ccccc21` (stereo partly drawn) [Compound P2-45], for which the IC50 under setting [4] was greater than 1 µM, the IC50 under setting [5] was 0.002 µM and the IC50 under setting [6] is 0.004 µM.

For `CN[C@@H](C)C(=O)N[C@@H](CCC(=O)Nc1cccc(CCc2cccc(NC(=O)CC[C@H](NC(=O)[C@H](C)NC)C(=O)N3CCC[C@H]3C(=O)N[C@@H]3CCCc4ccccc43)c2)c1)C(=O)N1CCC[C@H]1C(=O)N[C@@H]1CCCc2ccccc21` [Compound P2-44], the IC50 runs as follows: under setting [4], greater than 1 µM; under setting [5], 0.017 µM; under setting [6], 0.01 µM.

As to `CN[C@@H](C)C(=O)N[C@H](C(=O)N1CCC[C@H]1Cn1cnnc1CCc1ccccc1)[C@@H](C)OCCCCCCO[C@H](C)[C@H](NC(=O)[C@H](C)NC)C(=O)N1CCC[C@H]1Cn1cnnc1CCc1ccccc1` [Compound 86], the IC50 runs as follows: under setting [1], greater than 1 µM; under setting [2], greater than 1 µM; under setting [3], greater than 1 µM.

For `CN[C@@H](C)C(=O)N[C@H](C(=O)N1C[C@@H](NC(=O)c2nc[nH]c2C(=O)N[C@H]2C[C@@H](C(=O)N[C@H](C)c3ccccc3)N(C(=O)[C@@H](NC(=O)[C@H](C)NC)C(C)(C)C)C2)C[C@H]1C(=O)N[C@H](C)c1ccccc1)C(C)(C)C` [Compound P3-92], the IC50 was greater than 1 µM under setting [7], 0.099 µM under setting [8] and 0.072 µM under setting [9].

In the case of `CN[C@@H](C)C(=O)N[C@H](C(=O)N[C@@H](CCNC(=O)c1cccc(C(=O)N[C@H]2C[C@@H](C(=O)N[C@@H]3CCCc4ccccc43)N(C(=O)[C@@H](NC(=O)[C@H](C)NC)C(C)(C)C)C2)c1)C(=O)N[C@H](C)C(C)C)C(C)(C)C` [Compound 176], the IC50 under setting [1] was greater than 1 µM, the IC50 under setting [2] came out at 0.0199 µM and the IC50 under setting [3] was determined as 0.0388 µM.

Turning to `CN[C@@H](C)C(=O)N[C@@H](CCCCNC(=O)NCCCC[C@H](NC(=O)[C@H](C)NC)C(=O)N1C[C@@H](Oc2ccccc2)C[C@H]1C(=O)N[C@@H]1CCCc2ccccc21)C(=O)N1C[C@@H](Oc2ccccc2)C[C@H]1C(=O)N[C@@H]1CCCc2ccccc21` [Compound P2-37], the IC50 is, setting by setting: under setting [4], greater than 1 µM; under setting [5], 0.174 µM; under setting [6], 0.527 µM.

In the case of `CN[C@@H](C)C(=O)N[C@H](C(=O)N1C[C@@H](NC(=O)c2ccc(C#Cc3ccc(C(=O)N[C@H]4C[C@@H](C(=O)N[C@@H]5CCCc6ccccc65)N(C(=O)[C@@H](NC(=O)[C@H](C)NC)C(C)(C)C)C4)cc3)cc2)C[C@H]1C(=O)N[C@@H]1CCCc2ccccc21)C(C)(C)C` [Compound P3-100], the IC50 by setting is: under setting [7], greater than 1 µM; under setting [8], 0.054 µM; under setting [9], 0.055 µM.

With `CN[C@@H](C)C(=O)N[C@H](C(=O)N[C@@H](CCNC(=O)c1cc(C(=O)N[C@H]2C[C@@H](C(=O)N[C@@H]3CCCc4ccccc43)N(C(=O)[C@@H](NC(=O)[C@H](C)NC)C(C)(C)C)C2)cc([N+](=O)[O-])c1)C(=O)N[C@H](C)C(C)C)C(C)C` [Compound 179], the IC50 by setting is: under setting [1], greater than 1 µM; under setting [2], 0.056 µM; under setting [3], 0.048 µM.

`CN[C@@H](C)C(=O)N[C@H](C(=O)N1C[C@@H](NC(=O)c2cccc(C(=O)N[C@H]3C[C@@H](C(=O)N[C@@H]4CCCc5cc(OC)ccc54)N(C(=O)[C@@H](NC(=O)[C@H](C)NC)C(C)(C)C)C3)c2)C[C@H]1C(=O)N[C@@H]1CCCc2cc(OC)ccc21)C(C)(C)C` [Compound 45]: the IC50 by setting is: under setting [1], greater than 1 µM; under setting [2], 0.008 µM; under setting [3], 0.014 µM.

Take `CN[C@@H](C)C(=O)N[C@H](C(=O)N1C[C@@H](NC(=O)c2cc(C(=O)O)cc(C(=O)N[C@H]3C[C@@H](C(=O)N[C@@H]4CCCc5ccccc54)N(C(=O)[C@@H](NC(=O)[C@H](C)NC)C(C)(C)C)C3)c2)C[C@H]1C(=O)N[C@@H]1CCCc2ccccc21)C(C)(C)C` [Compound 127]: the IC50 under setting [1] was greater than 1 µM, the IC50 under setting [2] stood at 0.032 µM and the IC50 under setting [3] worked out at 0.028 µM.

Take `CC[C@@H](NC)C(=O)N[C@@H](C(=O)N[C@@H](C)C(=O)N[C@H](COCC#CC#CCOC[C@@H](NC(=O)C1CCCN1C(=O)[C@@H](NC(=O)[C@H](C)NC)C(C)(C)C)C1CCCCC1)C(C)C)C1CCCCC1` (stereo partly drawn) [Compound H-9]: the IC50 under setting [4] was greater than 1 µM, the IC50 under setting [5] worked out at 0.005 µM and the IC50 under setting [6] stood at 0.004 µM.

`CN[C@@H](C)C(=O)N[C@H](C(=O)N1C[C@@H](NC(=O)CCCCCCCCC(=O)N[C@H]2C[C@@H](C(=O)N[C@H](C)c3ccccc3)N(C(=O)[C@@H](NC(=O)[C@H](C)NC)C(C)(C)C)C2)C[C@H]1C(=O)N[C@H](C)c1ccccc1)C(C)(C)C` [Compound P3-93]: the IC50 runs as follows: under setting [7], greater than 1 µM; under setting [8], 0.012 µM; under setting [9], 0.043 µM.

With `CN[C@@H](C)C(=O)N[C@H](C(=O)N1C[C@@H](NC(=O)c2cccc(C(=O)N[C@H]3C[C@@H](C(=O)NCCc4ccc(S(N)(=O)=O)cc4)N(C(=O)[C@@H](NC(=O)[C@H](C)NC)C(C)(C)C)C3)c2)C[C@H]1C(=O)NCCc1ccc(S(N)(=O)=O)cc1)C(C)(C)C` [Compound 8], the IC50 under setting [1] was greater than 1 µM, the IC50 under setting [2] was greater than 1 µM and the IC50 under setting [3] is greater than 1 µM.

Turning to `C#CC[C@H](NC(=O)[C@H](C)NC)C(=O)N1C[C@@H](NC(=O)c2cc(N)cc(C(=O)N[C@H]3C[C@@H](C(=O)N[C@@H]4CCCc5ccccc54)N(C(=O)[C@@H](NC(=O)[C@H](C)NC)C(C)(C)C)C3)c2)C[C@H]1C(=O)N[C@@H]1CCCc2ccccc21` [Compound H-6], the IC50 reads like this: under setting [4], greater than 1 µM; under setting [5], 0.0229 µM; under setting [6], 0.0611 µM.
